Experimental data published in PubChem BioAssay AID2141 (Sanford-Burnham Center for Chemical Genomics, 2009).
Calls of active or inactive are those of the source. How the calls were made is not given here.

Target: E3 ubiquitin-protein ligase SIAH1 (Homo sapiens) (UniProt Q8IUQ4)
Test: Siah-1 binding antagonists, dose response, biochemical, TR-FRET (AID 2141)
Details: TR-FRET biochemical assay

SMILES	IC50
CC(NC(=O)Nc1ccc(O)cc1)(C(F)(F)F)C(F)(F)F	inactive
CC(C)(C)c1cc(-c2csc(Nc3ccccc3)[n+]2Cc2ccc(C(=O)O)cc2)cc(C(C)(C)C)c1O	6.69 µM
CSc1n[nH]c(NCc2ccc(Cl)cc2)n1	> 200 µM (inactive)
CCCCN(Cc1cc2cc(OC)ccc2[nH]c1=O)S(=O)(=O)c1ccc(C)cc1	17.2 µM
O=c1[nH]c2ccc(S(=O)(=O)N3CCCCC3)cc2s1	> 200 µM (inactive)
Cc1c(C(=O)O)sc2nc(CSc3ncc(C(F)(F)F)cc3Cl)[nH]c(=O)c12	7.65 µM
CC1=CC(C)(C)N2C(=O)C(=Nc3ccc(O)cc3)c3cccc1c32	5.61 µM
Fc1ccc(/C=N/NC(=S)Nc2cccnc2)cc1F	inactive
CCOc1ccccc1CNc1ccc(O)cc1	5.11 µM
S=c1[nH]nc(Cc2cccc3ccccc23)n1-c1ccccc1	> 200 µM (inactive)
O=C(O)CCCCN1C(=O)/C(=C\c2ccc(OCc3ccccc3)c(OCc3ccccc3)c2)SC1=S	4.03 µM
COc1cc(NS(=O)(=O)c2ccc(NC(=S)NC(=O)/C=C/c3ccc(F)cc3)cc2)ncn1	> 200 µM (inactive)
CCN(CC)CCOC(=O)c1ccc(N/C=C(/C#N)c2nc(-c3ccc(OC)c(OC)c3)cs2)cc1	< 1.56 µM
CCN(CC)CCOC(=O)c1ccc(N/C=C(/C#N)c2nc(-c3cc4ccccc4oc3=O)cs2)cc1	> 200 µM (inactive)
Cc1ccc(S(=O)(=O)N2CCC(=O)N(C(COCc3cccc(C)c3)Cc3ccccc3)CC2)cc1 (stereo not drawn)	> 200 µM (inactive)
O=C(CCN1CCN(Cc2ccccc2)CC1)Nc1cccc(Cl)c1	> 200 µM (inactive)
COCCCn1c(N)c(C(=O)NCc2ccco2)c2nc3ccccc3nc21	2.31 µM
C=CCc1cccc2cc(C(=O)Nc3ccc(CC(=O)O)cc3)c(=O)oc12	9.1 µM
COc1ccc(CCNC(=O)CCC(=O)N2CCOc3ccc(C)cc32)cc1OC	> 200 µM (inactive)

SMILES	IC50
COCCCNc1c2c3c(cccc3[nH]c1=O)C(=O)c1ccccc1-2	> 200 µM (inactive)
O=S(=O)(Nc1c(S(=O)(=O)c2ccccc2)c2nc3ccccc3nc2n1C1CCCCC1)c1ccccc1	2.09 µM
CCOC(=O)c1c(C)[nH]c2c1-c1ccccc1C(=O)C2=O	> 200 µM (inactive)
CC1=C(C#N)c2nc(N)c(C#N)c(C)c2/C1=C\c1ccc(-c2ccccc2C(=O)O)o1	> 200 µM (inactive)
CCc1nnc(NS(=O)(=O)c2ccc(NC(=S)NC(=O)/C=C/c3ccc(C(C)C)cc3)cc2)s1	8.87 µM
CC(=O)Nc1ccc(N=Cc2c(O)c(C(=O)Nc3ccccc3)cc3ccccc23)cc1	> 200 µM (inactive)
COc1cccc2cc(C(=O)N3CCc4ccccc43)c(=O)oc12	> 200 µM (inactive)
O=c1[nH]n(-c2ccc([N+](=O)[O-])cc2)c(=O)c2ccccc12	11.2 µM
CC(C)COc1ccc(-c2nn(-c3ccccc3)cc2/C=C2/SC(=S)N(CC(=O)O)C2=O)cc1	3.91 µM
CC1CCN(S(=O)(=O)c2ccc3c(c2)c(=O)c(C(=O)NCc2ccccc2Cl)cn3C)CC1	> 200 µM (inactive)
C[C@]12CCC3C(CC=C4C[C@@H](O)CC[C@@]43C)C1CCC2[C@]1(C)CCC(=O)O1 (stereo partly drawn)	> 200 µM (inactive)
O=C(NCc1ccc(Cl)cc1)c1cc(-c2cccs2)on1	6.3 µM
Cc1ccc(OCCCN2CCOCC2)cc1	> 200 µM (inactive)
CC1CCN(S(=O)(=O)c2nnc(NC(=O)c3cccc(Cl)c3)s2)CC1	> 200 µM (inactive)
COC(=O)C1CC(=O)N(c2ccc(OCc3ccccc3Cl)cc2)C1 (stereo not drawn)	> 200 µM (inactive)
NS(=O)(=O)c1ccc(NC(=O)c2cccc(N3C(=O)c4ccccc4C3=O)c2)cc1	10.6 µM
COC/C=C/C1=CC2=CC(=O)C(C)(OC(=O)c3ccco3)C(=O)C2=CO1 (stereo not drawn)	5.94 µM
Cc1ccc(C(=O)NC2CC3CCCC(C2)N3C(=O)NC2CCCCC2)cc1 (stereo not drawn)	> 200 µM (inactive)
CCC(C)[C@H](NC(=O)N1CCn2c1nc1ccccc12)C(=O)NCCc1ccc(OC)c(OC)c1 (stereo partly drawn)	> 200 µM (inactive)
